Assay results from patent US20250319139A1, “METHODS FOR TREATING NEUROINFLAMMATION” (University of Virginia Patent Foundation, priority 2021, published 2025).
Entries after “also recorded” stand apart in the source; their conditions may differ.

Experiments:
[1] = references [27, 32]; cited from earlier work
IL-6 [2] = assay: IL-6 in the hippocampus by ELISA; format: in vivo, mouse; conditions: young adult mice with exercise and surgery; intraperitoneal valeric acid
Protocol: IL-1β, IL-6, C3 and GDNF in the hippocampus were detected by using ELISA kits. For testing the IL-1β, IL-6 and GDNF, brain tissues were homogenized on ice in the RIPA buffer containing 25 mM Tris-HCl with pH 7.6, 150 mM NaCl, 1% sodium deoxycholate, 0.1% SDS and a protease inhibitor cocktail containing 10 mg/ml aproteinin, 5 mg/ml peptastin, 5 mg/ml leupetin and 1 mM phenylmethane sulfonylfluoride. For C3 testing, brain tissues were homogenized on ice in the PTR buffer (supplied in the kit). The supernatant was collected for ELISA detection after the homogenate was centrifuged at 13,000 g for 20 min at 4° C. and the protein concentration was determined by the BCA protein assay (Bio-Rad, Hemel Hempstead, Herts, UK). IL-1β, IL-6, C3 and GDNF in supernatant of brain were detected according to the manufacturer's instruction for ELISA, and the amount of them in each sample in the brain was normalized by its total protein content and was expressed as pg/mg protein.

[3] = Plasma SCFA profiling by GC-MS; format: in vivo, mouse; conditions: mice with exercise and surgery, intraperitoneal valeric acid; blood 7 days after surgery
C3ar = C3ar immunofluorescent staining of hippocampus; format: in vivo, mouse; conditions: young adult mice with exercise and surgery; intraperitoneal valeric acid
Protocol: The immunofluorescent labeling and quantification of the staining were performed as described before. Briefly, brain was fixed in 4% paraformaldehyde at 4° C. for 24 h and then incubated in 30% sucrose over night at 4° C. before being frozen in optimal cutting temperature compound. Coronal 20-μm thick sections were cut sequentially from Bregma -3 to -6 mm by using a cryostat and mounted on microscope slides. After being washed in Tris-buffered saline (TBS), sections were blocked in 10% donkey serum plus 1% bovine serum albumin (BSA) in TBS containing 0. 3% triton-X 100 for 2 h at room temperature and then incubated at 4° C. overnight with the following primary antibodies: rabbit monoclonal anti-C3 antibody (1:50), goat monoclonal anti-GFAP antibody (1:200), rat monoclonal anti-[…] antibody (1:50) and rabbit monoclonal anti-Iba-1 antibody (1:200). Sections were rinsed in TBS with 0.1% Triton-x 100. […] The quantification was performed as described previously. […] The number of pixels per image with intensity above a predetermined threshold level was considered as a positively stained area for an interested marker and quantified using the Image-pro plus 6.0 (Media Cybernetics, Inc., Rockville, MD, USA) and presented as percentage of positive area in the total area. […] All quantitative analyses were performed in a blinded manner.

IL-6 [4] = assay: ELISA of IL-6 in the serum; format: in vivo, mouse; conditions: young mice, 100 mg/kg intraperitoneal 1 h before and 6 h after 120-min MCAO; 24 h after MCAO; vs saline
Protocol: Mice were weighed and anesthetized with isoflurane at 24 h after MCAO. Blood samples were obtained from the right heart after thoracotomy. Blood was centrifuged (13,000 g, 4° C.) after it had been placed at 4° C. for 2 h for the collection of serum. After the collection of blood, mice were perfused with 4° C. saline for brain tissue harvesting. The cerebral cortex (anteroposterior: −1.5 to 2.5 mm, mediolateral: 1.0 to 3.0 mm) was dissected out. All dissection procedures were performed on ice.
IL-10, IL-17, IL-1β and IL-6 in the serum and brain were detected by using ELISA kits (catalog number: M1000B, M1700, MLB00C and D6050, R&D SYSTEM, Inc., Minneapolis, MN, USA) as we described before. The brain tissues were homogenized on ice in the RIPA buffer containing 25 mM Tris-HCl with pH 7.6, 150 mM NaCl, 1% sodium deoxycholate and 0.1% SDS (catalog number: 89901, Thermo Scientific, Rockford, IL, USA) and a protease inhibitor cocktail containing 10 mg/ml aproteinin, 5 mg/ml peptastin, 5 mg/ml leupetin and 1 mM phenylmethane sulfonylfluoride (catalog number: SRE0055, Sigma-Aldrich, St. Louis, MO, USA). The supernatant was collected for ELISA detection after being centrifuged for 20 min (13,000 g, 4° C.) and the protein concentration was determined by the BCA method. Cytokines in the serum and supernatant of brain were detected according to the manufacturer's instruction. […]

In the case of `CCCCC(=O)O` [valeric acid], the “crossing of blood-brain barrier” value [1] is given as “can cross blood-brain barrier”, the “exercise-induced reduction of IL-6 in the hippocampus” value (IL-6 [2]) is given as “this reduction was blocked” and the “butyric acid in the blood” value [3] is given as “attenuated this reduction”. For the same compound, the “hexanic acid in the blood” value [3] was “attenuated this reduction”, the “valeric acid in the blood” value [3] was “attenuated this reduction; also recorded: did not increase” and the “exercise-induced reduction of C3ar in the hippocampus” value (C3ar) was “this reduction was blocked”. For the same compound, the “IL-6 in the blood” value (IL-6 [4]) was “increased”.
